{"source": "BindingDB's records for doi:10.3109/14756366.2013.768987", "about": "(Medical University, 2014)", "key": {"DNA topoisomerase 1": {"biological_target": "T1, DNA topoisomerase 1 (Homo sapiens, UniProt P11387)", "T1 sequence (P11387 whole entry)": "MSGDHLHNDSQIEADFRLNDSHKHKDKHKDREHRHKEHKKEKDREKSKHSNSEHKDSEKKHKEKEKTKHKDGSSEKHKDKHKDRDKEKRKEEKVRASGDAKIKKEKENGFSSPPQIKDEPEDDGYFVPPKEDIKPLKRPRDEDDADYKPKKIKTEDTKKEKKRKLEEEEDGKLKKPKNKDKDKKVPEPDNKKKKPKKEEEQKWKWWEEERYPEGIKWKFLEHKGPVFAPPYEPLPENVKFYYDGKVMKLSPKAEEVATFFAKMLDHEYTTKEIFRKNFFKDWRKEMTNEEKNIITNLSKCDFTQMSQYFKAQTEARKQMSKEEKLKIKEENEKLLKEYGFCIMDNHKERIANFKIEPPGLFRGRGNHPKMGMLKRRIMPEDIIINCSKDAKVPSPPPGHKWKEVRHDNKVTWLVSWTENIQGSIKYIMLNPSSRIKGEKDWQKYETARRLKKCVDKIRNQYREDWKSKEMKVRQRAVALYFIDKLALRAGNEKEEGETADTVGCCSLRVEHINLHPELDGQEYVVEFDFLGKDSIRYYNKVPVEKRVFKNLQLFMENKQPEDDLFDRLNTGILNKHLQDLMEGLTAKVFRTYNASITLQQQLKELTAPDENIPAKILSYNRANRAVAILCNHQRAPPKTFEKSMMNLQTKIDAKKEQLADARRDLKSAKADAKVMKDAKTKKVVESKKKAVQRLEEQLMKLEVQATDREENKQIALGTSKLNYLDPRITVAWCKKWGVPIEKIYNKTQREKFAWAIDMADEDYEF", "experiment": "Topoisomerase I Relaxation Assay", "details": "pH 7.8; 37 °C", "procedure": "Supercoiled pHOT1 DNA (0.5 μg) was incubated with four units of human topoisomerase I in relaxation buffer (10mM Tris-HCl (pH 7.8), 1mM EDTA, 0.15M NaCl, 0.1% BSA, 0.1 spermidine, 5% glycerol), in the presence of varying concentrations of the test compounds. Reactions were carried out at 37 °Cfor 1 h and then terminated by the addition of sodium dodecyl sulfate (SDS) to 0.25% and proteinase K to 50 μg/ml. The reaction mixture was subjected to electrophoresis through a 0.8% agarose gel containing […] in TAE buffer ([…] and 1mM EDTA). The gels were stained with ethidium bromide and photographed under UV light. For the quantitative determination of topoisomerase concentration activity, photographic negatives were scanned and the area representing supercoiled DNA, migrating as a single band at the bottom of the gel was measured using UVI-KS4000i gel documentation and analysis system (SyngenBiotech, Sacramento, CA)."}, "[1]": {"biological_target": "DNA topoisomerase I (Homo sapiens)", "experiment": "Supercoiled pHOT1 DNA (0.5 μg) was incubated with four units of human topoisomerase I in relaxation buffer (10mM Tris-HCl (pH 7.8), 1mM EDTA, 0.15M NaCl, 0.1% BSA, 0.1 spermidine, 5% glycerol), in the presence of varying concentrations of the test compounds. Reactions were carried out at 37 °Cfor 1 h and then terminated by the addition o"}}}
{"compound": "O=C(NC(=S)NNC(=O)c1cc2ccccc2[nH]1)c1ccccc1", "note": "[DNA topoisomerase inhibitor, 2]", "values": [{"measurement": "IC50", "setting": "DNA topoisomerase 1", "result": 100, "unit": "µM"}, {"measurement": "IC50", "setting": "[1]", "result": 50, "unit": "µM"}]}
{"compound": "O=C(NNC(=S)Nc1ccc(Br)cc1)C1CCNCC1", "note": "[DNA topoisomerase inhibitor, 6]", "values": [{"measurement": "IC50", "setting": "DNA topoisomerase 1", "result": 250, "unit": "µM"}, {"measurement": "IC50", "setting": "[1]", "result": 250, "unit": "µM"}]}
{"compound": "O=C(NNC(=S)Nc1ccccc1)C1CCNCC1", "note": "[DNA topoisomerase inhibitor, 3]", "values": [{"measurement": "IC50", "setting": "DNA topoisomerase 1", "result": 250, "unit": "µM"}, {"measurement": "IC50", "setting": "[1]", "result": 250, "unit": "µM"}]}
{"compound": "CCc1ccc(NC(=S)NNC(=O)C2CCNCC2)cc1", "note": "[DNA topoisomerase inhibitor, 7]", "values": [{"measurement": "IC50", "setting": "DNA topoisomerase 1", "result": "> 350", "unit": "µM"}, {"measurement": "IC50", "setting": "[1]", "result": "> 350", "unit": "µM"}]}
{"compound": "Cc1nc[nH]c1C(=O)NNC(=S)NC(=O)c1ccccc1", "note": "[DNA topoisomerase inhibitor, 1]", "values": [{"measurement": "IC50", "setting": "DNA topoisomerase 1", "result": 100, "unit": "µM"}, {"measurement": "IC50", "setting": "[1]", "result": 50, "unit": "µM"}]}
{"compound": "CCNC(=S)NNC(=O)C1CCNCC1", "note": "[DNA topoisomerase inhibitor, 8]", "values": [{"measurement": "IC50", "setting": "DNA topoisomerase 1", "result": "> 350", "unit": "µM"}, {"measurement": "IC50", "setting": "[1]", "result": "> 350", "unit": "µM"}]}
{"compound": "O=C(NNC(=S)Nc1ccc(I)cc1)C1CCNCC1", "note": "[DNA topoisomerase inhibitor, 5]", "values": [{"measurement": "IC50", "setting": "DNA topoisomerase 1", "result": 250, "unit": "µM"}, {"measurement": "IC50", "setting": "[1]", "result": 250, "unit": "µM"}]}
{"compound": "COc1ccc(NC(=S)NNC(=O)C2CCNCC2)cc1", "note": "[DNA topoisomerase inhibitor, 4]", "values": [{"measurement": "IC50", "setting": "DNA topoisomerase 1", "result": 250, "unit": "µM"}, {"measurement": "IC50", "setting": "[1]", "result": 250, "unit": "µM"}]}
{"compound": "COc1cc([C@@H]2c3cc4c(cc3[C@@H](O[C@@H]3O[C@@H]5CO[C@@H](C)O[C@H]5[C@H](O)[C@H]3O)[C@H]3COC(=O)[C@H]23)OCO4)cc(OC)c1O", "note": "[4'-Demethylepipodophyllotoxin 9-(4,6-O-(R)-ethylidene-beta-D-glucopyranoside)]", "values": [{"measurement": "IC50", "setting": "DNA topoisomerase 1", "result": "> 350", "unit": "µM"}]}
